Patent US12274729B2, “Formulations and methods for skin care or hyaluronic acid synthesis” (AMILYFE, LLC, priority 2022, dated 2025)

Legend:
[1] = tested on: barrier marker genes in differentiated normal human epidermal keratinocytes (NHEK); assay: qPCR mRNA expression of barrier marker genes in differentiated NHEK; format: cell-based; conditions: qPCR data from two donors
Procedure: Treatment time—4 h. […] Data from two independent experiments. Exemplary barrier marker genes examined as follows: Epidermal growth factor (EGF); fibroblast growth factor 2 (FGF2); platelet derived growth factor (PDGF); Carnitine Palmitoyltransferase 2 (CPT2); Transglutaminase 4 (TGM4); Peroxisome Proliferator Activated Receptor Delta (PPARD); TNF Receptor Superfamily Member 10d (TNFRSF10D).
To test the effect of amino acid treatment on epithelial skin barrier, a cellular model of differentiated normal human epidermal keratinocytes (NHEK) was utilized. Commercially available NHEK (ATCC), derived from three diverse healthy donors, were used. Based on a multivariate analysis, three amino acids for the treatment: Ser, Gln and Gly were selected.
Using gene arrays, comparative analyses of two datasets were performed in three diverse donors focusing on consistently differentially [filter criterion of fold change 1.5 (positive or negative) and p-value <0.05)] expressed genes following treatment with various amino acids and combinations thereof. qPCR was used to assess the mRNA expression results. The qPCR results confirmed the array results pertaining to differential expression, thereby validating the panel of genes.
mRNA is extracted, converted to cDNA, and analyzed by qPCR method using custom TaqMan array 384-well plates (Thermo Fisher Scientific) containing 34 of the above-mentioned genes. Four control housekeeping genes are included to normalize the mRNA expression: GAPDH, POLR2A, YWHAZ and PGK1. The array plate will contain 38 genes in total and 10 samples can be analyzed in one run of qPCR.

[2] = Preliminary screens of amino acids
Procedure: In addition to the amino acid combinations described above, several other combinations are tested that include, e.g., Trp and/or Arg to determine if inclusion of these amino acids confers additional dermatological benefits. […] At the outset, the following combinations of amino acids are tested: Ala, Gln, Gly, Ser (combo #1); Ala, Gln, Gly, Ser, Val, Ile (combo #2); Ala, Gln, Gly, Ser, Val; Ala, Gln, Gly, Ser, Ile; Ala, Gln, Gly, Ser, Ile, Val, Trp; Ala, Gln, Gly, Ser, Ile, Val, Arg; and Ala, Gln, Gly, Ser, Ile, Val, Trp, Arg.

[3] = tested on: HAS3 mRNA in human-derived epidermal keratinocytes (NHEK); assay: HAS3 mRNA fold change (qPCR) in keratinocytes; format: cell-based; conditions: 4GAA 4 mM, ROL 10 μM
[4] = tested on: HAS2 mRNA in human-derived epidermal keratinocytes (NHEK); assay: HAS2 mRNA fold change (qPCR) in keratinocytes; format: cell-based; conditions: 4GAA 4 mM, ROL 10 μM
[5] = Donor O and Donor R keratinocytes, 24 h in complete medium
[6] = NHEK Donors E, G, O, R, T, 4 h in amino acid-deprived medium

Row | Compound | effectiveness in comparative analysis of qPCR data with scoring system [1] | other results
1 | N[C@@H](CO)C(=O)O [Ser, serine] | most effective | –
2 | N=C(N)NCCC[C@H](N)C(=O)O [Arg, arginine] | – | effect in preliminary screens [2]: positive effects
3 | N[C@@H](Cc1ccc(O)cc1)C(=O)O [Tyr, tyrosine] | least effective | –
4 | O=C(O)[C@@H]1CCCN1 [Pro, proline] | least effective | –
5 | NC(=O)CC[C@H](N)C(=O)O [Gln, glutamine] | most effective | –
6 | CC1=C(/C=C/C(C)=C/C=C/C(C)=C/CO)C(C)(C)CCC1 [ROL, retinol] | – | HAS3 mRNA gene expression [3, 5]: upregulated; HAS3 gene expression [3, 6]: upregulated; HAS2 mRNA gene expression [4, 5]: upregulated; HAS2 gene expression [4, 6]: upregulated
7 | N[C@@H](CC(=O)O)C(=O)O [Asp, aspartic acid] | least effective | –
8 | NCC(=O)O [Gly, glycine] | most effective | –
9 | N[C@@H](CS)C(=O)O [Cys, cysteine] | least effective | –
10 | C[C@@H](O)[C@H](N)C(=O)O [Thr, threonine] | least effective | –
11 | N[C@@H](Cc1c[nH]c2ccccc12)C(=O)O [Trp, tryptophan] | – | effect in preliminary screens [2]: positive effects
12 | C[C@H](N)C(=O)O [Ala, alanine] | most effective | –
